Test results: PubChem BioAssay AID464 (The Scripps Research Institute Molecular Screening Center, 2006)
Calls of active or inactive are those of the source.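 The calls were made as follows: active = Compounds that kill half the cells at a concentration of 5 micromolar or below, from the fitted or estimated CC50; inactive = CC50 above 5 micromolar.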

System: Jurkat E6.1 viability, ATP luminescence, 48 h
Assay: viability loss in Jurkat T cells – cell-based, ATP luminescence, 48 h, 60K MLSMR, cytotoxicity control, dose response (AID 464)

SMILES | CC50
CCn1ncc(C2=NOC(C(=O)NCc3ccc(OC)cc3)C2)c1C (configuration not stated) | 11.8 µM (inactive)
COc1cccc(-c2cc(C(=O)Nc3cc(OC)c(OC)c(OC)c3)no2)c1 | 8.79 µM (inactive)
O=c1c2[nH]c3ccc(F)cc3c2ncn1CCCn1ccnc1 | 17.1 µM (inactive)
Cc1c(C(=O)N2CCCCC2)oc2ccc(S(=O)(=O)N3CC(C)CC(C)C3)cc12 (configuration not stated) | 15.9 µM (inactive)
CCN(CC)c1ccc2cc(-c3nc4ccccc4n3C)c(=O)oc2c1 | 0.32 µM
CCCNc1nc2c(c(=O)n(C)c(=O)n2C)n1Cc1cccc(C)c1 | 10.8 µM (inactive)
CCOc1cc(C#N)c(NC(=O)c2ccco2)cc1OCC | 4.31 µM
Oc1cccc2ccc(Nc3ccccn3)nc12 | 1.97 µM
CCOC(=O)N1CCN(c2c(NCc3cccs3)c(=O)c2=O)CC1 | 5.79 µM (inactive)
O=C(CC(=O)c1ccccc1O)c1cccc(F)c1 | > 40 µM (inactive)
COc1ccc(C2NC(=O)NC3=C2CCc2ccccc23)cc1 (configuration not stated) | 4.81 µM
COc1ccc(Cl)cc1S(=O)(=O)n1cnc2ccccc21 | > 40 µM (inactive)
Cc1nn(-c2ccccc2)c(C)c1C(=O)Nc1nnc(-c2ccco2)o1 | > 40 µM (inactive)
O=C(c1cc(-c2ccc(O)cc2)on1)N1CCc2ccccc2C1 | > 40 µM (inactive)
CCOC(=O)Nc1ccc2c(c1)N(C(=O)OC)c1ccccc1CC2 | > 4.4 µM (inactive)
CCn1c2ccccc2c2cc(Nc3cc(C)nc4ncnn34)ccc21 | 0.109 µM
CCOC(=O)NC1(Nc2ccc(Cl)cn2)Oc2ccccc2O1 | 12.5 µM (inactive)
CCOC(=O)C1=C(N)n2c(s/c(=C\c3ccco3)c2=O)=C(C(=O)OCC)C1c1ccco1 (configuration not stated) | 6.77 µM (inactive)
COc1ccc(-c2nnc(NC(=O)c3ccccc3C)o2)cc1 | > 40 µM (inactive)
Cc1noc(C)c1CSc1nc2ccccc2c(=O)n1-c1ccc(F)cc1F | > 4.4 µM (inactive)
CC(=O)CC1OC(=O)C(Br)=C1NCc1ccccc1 (configuration not stated) | 3.91 µM
CCOC(=O)c1[nH]c(C)c(C(=O)Nc2ccccc2F)c1C | 1.42 µM

SMILES | CC50
O=C(CCn1c(=O)oc2ccccc21)N1CCN(c2ccccc2Cl)CC1 | 5.77 µM (inactive)
CCOC(=O)CCS(=O)(=O)c1nc(-c2ccccc2)cc(C(F)(F)F)n1 | 4.58 µM
CCOC(=O)c1[nH]c(C)c(C(=O)c2cc(F)ccc2F)c1C | 0.204 µM
CCN=c1scc(-c2ccc3c(c2)NC(=O)CO3)n1N=C1CCCC1 | 8.47 µM (inactive)
Cc1cc(C(=O)CSc2nnc(NCc3ccccc3)s2)c(C)n1C | 12.9 µM (inactive)
Cc1ccc(Oc2ccc(S(=O)(=O)N3CCOCC3)cc2C(N)=O)c(-n2nc3ccccc3n2)c1 | 2.31 µM
COc1ccc(CNc2cc(C)nc3ncnn23)c(OC)c1 | 3.25 µM
COCCCN(C(C)=O)c1nc(-c2ccc(OC)cc2)cs1 | > 4.4 µM (inactive)
COc1ccccc1-c1nnc(Nc2nc3c(OC)cccc3s2)o1 | 0.664 µM
CCn1nc(-c2cccs2)nc2c(=O)n(C)c(=O)nc1-2 | > 40 µM (inactive)
O=C(Nc1nc2ccccc2[nH]1)c1ccccc1F | 4.79 µM
Cc1cc(NC(=O)COC(=O)c2ccc(S(=O)(=O)N3CCCc4ccccc43)cc2)no1 | 2.16 µM
COc1ccccc1C(=O)N1CCN(c2cccc(C(F)(F)F)c2)CC1 | 2.09 µM
O=C(Nc1ccc(N2CCOCC2)cc1)Nc1ccc2nc(-c3ccco3)c(-c3ccco3)nc2c1 | 10.4 µM (inactive)
Cc1noc(C)c1CSc1nc2ccccc2c(=O)n1-c1ccccc1 | 2.28 µM
Cc1cc(NC(=O)CSc2nc(-c3cccs3)cc(C(F)(F)F)n2)no1 | 0.264 µM
O=C(c1ccncc1)N(Cc1cc2ccccc2[nH]c1=O)C1CCCCC1 | 5.31 µM (inactive)
CCCCNc1ncnc2c1cnn2-c1ccccc1 | 2.39 µM
CN(C)S(=O)(=O)c1ccc(N2CCN(S(=O)(=O)c3ccc(F)cc3)CC2)c(Cl)c1 | 16.1 µM (inactive)
N#C/C(=C/c1ccc(N2CCCCCC2)o1)c1ccc(F)cc1 | > 13 µM (inactive)
CSC1=C(C#N)C(c2ccc(Cl)cc2)C2=C(CC(C)(C)CC2=O)N1 (configuration not stated) | 14.7 µM (inactive)
Cc1cccc(Cn2c(NCC(C)O)nc3c2c(=O)n(C)c(=O)n3C)c1 (configuration not stated) | 8.24 µM (inactive)

SMILES | CC50
C=CS(=O)(=O)c1ccc(Oc2ccc(S(=O)(=O)C=C)cc2)cc1 | 1.9 µM
CCOc1ccc2nc(NC(=O)c3ccoc3C)sc2c1 | 12.6 µM (inactive)
O=C(NCCSc1c[nH]c2ccccc12)c1ccc(Br)o1 | > 40 µM (inactive)
Cc1cc2nnc(SCC(=O)NCc3ccco3)n2c2ccccc12 | 1.9 µM
COc1ccccc1C1C=C(c2ccc(C)cc2)Nc2nnnn21 (configuration not stated) | > 40 µM (inactive)
CCOC(=O)c1c(COc2ccccc2)oc2ccc(O)cc12 | > 40 µM (inactive)
COCCOC(=O)c1[nH]c2c(c1C)C(=O)CC(c1ccc(F)cc1)C2 (configuration not stated) | 5.37 µM (inactive)
COc1ccc(C(=O)n2c(-c3ccco3)nc3ccccc32)cc1 | 1.79 µM
CCCOC(=O)c1[nH]c2c(c1C)C(=O)CC(c1cc(OC)c(OC)c(OC)c1)C2 (configuration not stated) | 23.8 µM (inactive)
Cc1cccc2cc3c(N)c(C(=O)N4CCOCC4)sc3nc12 | 0.95 µM
Cc1cc2c(cc(C(=O)OCC(=O)NCc3cccs3)n2C(C)C)o1 | 0.837 µM
O=C(CSc1n[nH]c(-c2ccccc2O)n1)N1CCCc2ccccc21 | 9.5 µM (inactive)
COc1cc(C2=NOC(C(=O)NCc3ccco3)C2)cc(OC)c1OC (configuration not stated) | 2.21 µM
Cc1nc(CNS(=O)(=O)c2ccc(Oc3ccccc3)cc2)cs1 | 10.6 µM (inactive)
COc1ccc(NS(=O)(=O)c2cc(C)ccc2NC(=O)c2cc(C)oc2C)cc1 | 0.191 µM
Cc1cc(NC(=O)c2cc(-c3ccncc3)nc3c(C)cccc23)no1 | 2.29 µM
COc1cc(C2Nc3ccc4ncccc4c3C3=C2C(=O)CCC3)ccc1O (configuration not stated) | 2.5 µM
COc1ccccc1C1C=C(c2ccccc2)Nc2nnnn21 (configuration not stated) | > 13 µM (inactive)
CCc1nnc(NC(=O)c2ccc(S(=O)(=O)N(CC(C)C)CC(C)C)cc2)o1 | 29.8 µM (inactive)
COC(=O)c1ccc(Cl)c(NS(=O)(=O)c2ccc3c(c2)OCCO3)c1 | 4.81 µM
Cc1cccc(-n2ncc3c(NCc4ccccc4)ncnc32)c1 | 3.86 µM
CCn1ncc(C2=NOC(C(=O)NCc3ccc(Cl)cc3)C2)c1C (configuration not stated) | 1.61 µM

SMILES | CC50
Cc1ccc(Cl)cc1N1CCN(C(=O)C2CCN(c3nnc(-n4cccc4)s3)CC2)CC1 | > 40 µM (inactive)
Cc1cc(NC(=O)CSc2nc3ccccc3c(=O)n2C2CCCC2)no1 | 0.469 µM
COc1cccc(/C=N/n2c(SC)nnc2-c2ccccc2)c1O | 10 µM (inactive)
CCOC(=O)c1c(C)c(C(=O)Nc2cc(F)ccc2F)c(C)n1C | 6.52 µM (inactive)
Cc1ccc(C)c2[nH]c(=O)c(CN(CCN3CCCC3)C(=O)Nc3cccc(Cl)c3)cc12 | > 40 µM (inactive)
COc1ccccc1C1CC(=O)Nc2cc3c(cc21)OCCO3 (configuration not stated) | 0.912 µM
O=C(Nc1ccc(Cl)cn1)c1cccc(F)c1 | > 4.4 µM (inactive)
N#CCCn1cc(/C=N/O)c(-c2ccc(-c3ccccc3)cc2)n1 | 11.6 µM (inactive)
CCN(CC)C(=O)C1CCCc2c1[nH]c1ccc(Cl)cc21 (configuration not stated) | > 40 µM (inactive)
CCOC(=O)c1[nH]c(C)c(C(=O)Nc2ccc(C)cc2C)c1C | 1.64 µM
CN(C)c1ccc(C2C=C(c3ccc(Cl)cc3OC(F)F)Nc3ncnn32)cc1 (configuration not stated) | 3.56 µM
COc1ccccc1-c1cc(C(F)(F)F)nc(S(=O)(=O)CCCC(=O)N2CCOCC2)n1 | 2.22 µM
Cc1cc(/C=N/n2cnnc2)c(C)n1-c1ccc(OCc2ccc(F)cc2)cc1 | > 13 µM (inactive)
COc1ccc(OC)c(NS(=O)(=O)c2ccc(SC)cc2)c1 | 3.29 µM
CCCCN(C)S(=O)(=O)c1ccc(C(=O)Nc2nnc(CSC)o2)cc1 | 27.9 µM (inactive)
N#Cc1c(NC(=O)CSc2nc(N)cc(=O)[nH]2)sc2c1CCCCCC2 | 6.25 µM (inactive)
CCOC(=O)Nc1cc(=O)c2ccccc2o1 | > 4.4 µM (inactive)
Cc1nc(NCc2ccco2)c2c3c(sc2n1)CCC3 | 15.6 µM (inactive)
COc1cc(NC(=O)c2cc(-c3cccs3)on2)cc(OC)c1OC | 12.8 µM (inactive)
CC1CCCCC1NS(=O)(=O)c1ccc(S(=O)(=O)NCc2ccncc2)cc1 (configuration not stated) | 2.37 µM
COc1ccc(CCNc2nnc(Sc3nnnn3-c3ccccc3)s2)cc1OC | 0.875 µM
Cc1cc(N2CCN(C/C=C/c3ccccc3)CC2)n2ncnc2n1 | > 40 µM (inactive)

SMILES | CC50
C=CCn1c(SCc2c(C)noc2C)nc2cc(C(=O)O)ccc2c1=O | 3.4 µM
Cn1c(=O)c2c(nc(NCCO)n2CCc2ccccc2)n(C)c1=O | 9.41 µM (inactive)
O=C(Nc1ccc(SC(F)F)cc1)c1ccc2nccnc2c1 | 13.1 µM (inactive)
CCOC(=O)N1CCN(C(=O)C2CCCN(Cc3nc(-c4ccc(Cl)cc4)oc3C)C2)CC1 (configuration not stated) | 4.64 µM
CCN1CCN(S(=O)(=O)c2cc(OCC(=O)NC3CCCCC3)c(C)cc2Cl)CC1 | 3.3 µM
COc1ccc2nc(NC(=O)c3cccc(OCc4c(C)noc4C)c3)sc2c1 | 1.6 µM
Cc1ccsc1C=Nc1ccc(O)cc1 | 39.3 µM (inactive)
CCOc1ccc(-c2cc(C(=O)O)c3ccccc3n2)c(OCC)c1 | > 40 µM (inactive)
O=C(C1CCN(S(=O)(=O)c2cccc3cccnc23)CC1)N1CCN(c2ccc(Cl)cc2)CC1 | 19.5 µM (inactive)
N=c1ccn(Cc2ccc(Cl)c(Cl)c2)cc1 | 10.4 µM (inactive)
Cn1c(=O)oc2cc(S(=O)(=O)N3CCCc4ccccc43)ccc21 | 0.173 µM
CCN(C1CCCCC1)S(=O)(=O)c1ccc(S(=O)(=O)NCc2ccncc2)cc1 | 5.32 µM (inactive)
CCOc1ccc(-c2cc(CCCC(=O)Nc3cccc(OC)c3)no2)cc1 | 0.809 µM
CCN(CC)c1nc(C#N)cc(-c2ccc(OC)cc2)n1 | 5.36 µM (inactive)
Cc1cc(C(=O)OCC(=O)NCc2ccco2)c(C)n1-c1ccc(F)cc1 | 2.34 µM
Cc1ccc2[nH]c(-c3ccccc3)cc(=O)c2c1 | 0.324 µM
CCCSc1nnc(Sc2nnnn2-c2ccccc2)s1 | 1.28 µM
CCOc1ccccc1C(=O)N1CCN(c2cccc(Cl)c2)CC1 | 0.095 µM
O=C(NCCN1CCOCC1)NC1(C(F)(F)F)Oc2ccc(Cl)cc2O1 (configuration not stated) | 8.23 µM (inactive)
